The values that follow come from patent US12215354B2, “Differentiation of human embryonic stem cells into single hormonal insulin positive cells” (Janssen Biotech, Inc., priority 2011, dated 2025).

This assay relates to human embryonic stem cell line H1. Briefly: Immune staining for insulin, glucagon and somatostatin hormones at end of stage 5 (Example 13). Type of assay: cell-based. As to conditions: percentage of the entire hormone count at S5 day 3. As for the experimental part: Cells of the human embryonic stem cell line H1 at various passages (passage 40 to passage 52) were seeded as single cells at a density of 100,000 cells/cm^2 on MATRIGEL™ (1:30 dilution) coated dishes in mTesr™1 media and 10 μM of Y27632. Forty eight hours post seeding, cultures were differentiated into pancreatic endocrine lineage as follows: • a. Stage 1 (Definitive Endoderm (DE)−3 days): Prior to start of DE, the cultures were washed and incubated with incomplete PBS (no Mg or Ca) for 30 seconds followed by addition of the stage 1 media. Human embryonic stem cells cultured as single cells on MATRIGEL™-coated dishes were treated with MCDB-131 medium supplemented with 0.1% fatty acid-free BSA, 0.0012 g/ml sodium bicarbonate, 1× GLUTAMAX™, 5 mM D-Glucose, 100 ng/ml GDF8, 1 μM MCX compound (GSK3B inhibitor) for one day. Cells were then treated with MCDB-131 medium supplemented with 0.1% fatty acid-free BSA, sodium bicarbonate, GLUTAMAX™, extra 5 mM glucose, 100 ng/ml GDF8, and 100 nM MCX compound for day two followed by an additional day in MCDB-131 medium supplemented with 0.1% fatty acid-free BSA, 0.0012 g/ml sodium bicarbonate, 1× GLUTAMAX™, 5 mM Glucose, and 100 ng/ml GDF8. • b. Stage 2 (Primitive gut tube−2 days): Cells were treated with MCDB-131 medium supplemented with 0.1% fatty acid-free BSA, 0.0012 g/ml sodium bicarbonate, 1× GLUTAMAX™, 5 mM D-Glucose, 0.25 mM ascorbic acid, and 25 ng/ml FGF7 and for two days, then • MCDB131supplemented with 1:200 dilution of ITS-X, 2.5 mM Glucose, 1× GLUTAMAX™, 0.0015 g/ml sodium bicarbonate, 2% fatty acid-free BSA, 10 ng/ml Activin A, 25 ng/ml FGF7, 0.25 mM ascorbic acid, 0.25 μM SANT-1, 1 μM RA, 200 nM TPB, 100 nM LDN-193189 for day 1, followed by treatment with tMCDB131supplemented with 1:200 dilution of ITS-X, 2.5 mM Glucose, 1× GLUTAMAX™, 0.0015 g/ml sodium bicarbonate, 2% fatty acid-free BSA, 10 ng/ml Activin A, 25 ng/ml FGF7, 0.25 mM ascorbic acid, 0.25 μMSANT-1, 1 μM RA, 200 nM TPB, 10 nM LDN-193189 for an additional day. • d. […]

With `O=C1O[C@H]([C@@H](O)CO)C(O)=C1O` [ascorbic acid], for the setting “treatment at S5”, the “% Polyhormonal” value worked out at 44% and the “% glucagon + plus % somatostatin+” value is 44%. In addition, the “% single hormonal Insulin+” value (treatment at S5 (0.1 mM ascorbic acid, 50 nM RA, 0.25 μM SANT-1, 1 μM Alk5 inh)) is listed as 12%.
